Laboratory results taken from patent US20250302767A1, “TREATMENT OF CANCER AND AUTOIMMUNE DISORDERS USING NANO POLYMERS OF HISTONE DEACETYLASE INHIBITORS” (University of Virginia Patent Foundation, priority 2021, published 2025).
Read-outs that look alike come from different tables or passages of the source.

Legend:
TL-1 (LGL leukemia) = assay: Cell viability assay ([…]-GLO); type: cell-based; settings: Homo sapiens, 60 h, read-out: IC50 in nM at 60 Hours
From the text: Cell lines. The T cell lymphoma cell lines HH and H9 (both Cutaneous T Cell Lymphomas; CTCL), SUP-T1 (T Cell Lymphoblastic Lymphoma) and FEPD and SUP-M2 (ALK-negative anaplastic large cell lymphoma; ALCL), were obtained from ATCC. NKL (Natural killer cell lymphoblastic leukemia/lymphoma) cell lines (Robertson et al., 1996) were also employed. The cutaneous melanoma cell line FM3-29 was obtained from DSMZ. The Large Granular Lymphocyte (LGL) leukemia cell line TL-1 was generated in the Loughran lab. All cells were grown at 37° C. and 5% CO2 in a humidified incubator. Cell lines were authenticated by short tandem repeat DNA profiling (Genetica DNA laboratories) and tested for mycoplasma contamination routinely using the MycoAlert PLUS detection kit (Lonza #LT07-710). Experiments were performed within 6 weeks of thawing. HH, H9, SUP-T1, FEPD and FM3-29 cells were cultured in RPMI-1640 (Corning, Glendale, AZ) with 10% FBS (Thermofisher Scientific, Waltham, MA). SUP-M2 cells were cultured in RPMI-1640 with 20% FBS. TL-1 cells were cultured in RPMI-1640 with 10% FBS and supplemented with 200 U/ml IL-2 (Miltenyi Biotec cat #130-097-743). NKL cells were cultured in RPMI-1640 with 10% FBS and supplemented with 100 U/ml IL-2.
Cell Viability Assay. For cell viability, cell lines were plated at the appropriate cell densities (SUP-T1, HH, NKL and TL-1 at 100,000 cells/ml/well and H9, FEPD SUP-M2 and FM3-29 at 50,000 cells/ml/well) in a 48-well plate. […] Cells were harvested after 24, 60, and 96 hours of incubation at 37° C., 5% CO2 and assayed for cell viability, using […]-GLO® (Promega) luminescence reagent, by quantifying the amount of ATP present. After 15 minutes of adding […]-GLO® reagent at a 1:1 ratio, luminescence was read on a GLOMAX® Discover Microplate Reader (Promega). Luminescence was normalized to untreated control, which was defined as 100% viability.

[1] = tested on: PBMCs from healthy donors; assay: Cell viability of normal cells (CELL TITER GLO); type: cell-based, human; settings: for IC50: Homo sapiens, PBMC
[2] = tested on: acetylation of histone proteins H3 and H4 in HH cells; assay: Acetylation of histone H3 and H4 (flow cytometry, Western blot); type: cell-based, human; settings: increasing doses, 30 hours
Procedure: Flow Cytometry. Cells were harvested after 30 hours of treatment, washed twice with PBS, fixed with 4% paraformaldehyde solution and permeabilized with 70% methanol before incubating with the relevant antibodies: HDAC1 Polyclonal Antibody (Proteintech), Rabbit anti-Acetyl Histone H3 K9/K14, and Rabbit Anti-Acetyl Histone H4 (Millipore). After 30 minutes incubation at room temperature cells are washed twice with PBS and FITC conjugated secondary Goat anti-rabbit antibodies (Thermofisher) were added. Cells were incubated on ice for 30 minutes and then washed in PBS. After the second wash, cells were resuspended in PBS with 4% FBS and ready for signal acquisition on a flow cytometer. Apoptosis in cell lines was assessed by the presence of cleaved Poly (ADP-ribose) polymerase-1 (PARP) using a flourochrome conjugated anti-cleaved PARP antibody (BD Biosciences). After staining the cells were acquired using an Attune Flow Cytometer and the data analyzed using FloJo analysis software. The Mean Fluorescence intensity (MFI) was indicative of the level of expression of each marker.
Western Blots. […] Antibodies were detected with the corresponding horseradish peroxidase-linked secondary antibodies. […] Signal detection and imaging was captured and analyzed using a CHEMIDOC™ System (Bio-Rad) with signal quantification. […]

[3] = Single dose toxicity study (MTD); type: in vivo, mice; settings: female, mouse, in vivo, BALB/c mice
Procedure: (§1) In vivo studies. For single dose toxicity study, five to seven-week old female BALB/c mice were chosen for the MTD study. Animals were randomly assigned to dose groups based on body weight. […] Mice were divided into two cohorts for Nano-romidepsin (NanoRomi) and free romidepsin. Each cohort was divided into sub-cohorts. Each sub cohort (n=5) received a single treatment of following doses: 1, 2, 3, 5, and 8 mg/kg body weight by intreaperitoneal (IP) and intravenous (IV) route of administration. NanoRomi was diluted under sterile conditions in phosphate buffered saline (PBS). Romidepsin was prepared in DMSO and then diluted with PBS under sterile condition. […] The mice were monitored for 7 days after the last treatment. For single dose and repeated dose toxicity study, we used two endpoints: weight loss and clinical score. Clinical signs were scored by observing activity, appearance (hair coat and eyes/nose), posture, and body condition with a maximum of 3 points going to each (0, normal; 1 slight deviation from normal; 2, moderate deviation from normal, 3, severe deviation from normal). Euthanasia criteria included weight loss either >20% weight loss or reached a clinical score >6.

BALB/c mice = assay: Single dose toxicity study (MTD); type: in vivo
Procedure: as §1

[4] = tested on: H9-dtomato-luciferase tumor; assay: Efficacy study, xenograft bioluminescence imaging; type: in vivo, NOD.Cg-Prkdcscid Il2rgtm1Wjl/SzJ mice (human H9 xenografts); settings: 2 mg/kg IP on days 1, 4, 8, 11; after day 17 of engraftment
From the text: FIG. 15. Efficacy study using NanoRomidepsin PDLLA. […] In vivo, BLI images were acquired to determine the response after the romidepsin and NanoRomidepsin PDLLA treatment. All cohorts were imaged on days 7, 10, 14, and 17 days (arrows) after post-engraftment using Lago X Spectrum Imaging System before the administration of drugs. After acquisition of images, a mean BLI curve of human H9 xenografts was generated where the y axis represents total flux (photon/s) and x axis represents time (Days) function.

[5] = tested on: human CLL, PLL, T cell lymphoma, esophageal and pancreatic cancer and multiple myeloma cells; settings: in vitro; cited from earlier work

Structure (SMILES): C/C=C1\NC(=O)[C@H]2CSSCC/C=C/[C@H](CC(=O)N[C@H](C(C)C)C(=O)N2)OC(=O)[C@H](C(C)C)NC1=O [Romidepsin, (1S,4S,7Z,10S,16E,21R)-7-Ethylidene-4,21-diisopropyl-2-oxa-12,13-dithia-5,8,20,23-tetrazabicyclo[8.7.6]tricos-16-ene-3,6,9,19,22-pentone]
- IC50 (TL-1 (LGL leukemia)): 0.7 nM
- times PBMCs from healthy donors more sensitive than the cancer cells ([1]; 72 hrs PBMCs vs cancer cells): 1.5 ×
- IC50 ([1]; 24 h, read-out: IC50 in nM, PBMC Donor 1, 24 hrs): 0.02 nM
- IC50 ([1]; 24 h, read-out: IC50 in nM, PBMC Donor 2, 24 hrs): > 50 nM
- IC50 ([1]; 24 h, read-out: IC50 in nM, PBMC Donor 3, 24 hrs): > 50 nM
- IC50 ([1]; 48 h, read-out: IC50 in nM, PBMC Donor 1, 48 hrs): 0.01 nM
- IC50 ([1]; 48 h, read-out: IC50 in nM, PBMC Donor 2, 48 hrs): 0.01 nM
- IC50 ([1]; 48 h, read-out: IC50 in nM, PBMC Donor 3, 48 hrs): > 50 nM
- IC50 ([1]; 72 h, read-out: IC50 in nM, PBMC Donor 1, 72 hrs): 0.04 nM
- IC50 ([1]; 72 h, read-out: IC50 in nM, PBMC Donor 2, 72 hrs): 0.07 nM
- IC50 ([1]; 72 h, read-out: IC50 in nM, PBMC Donor 3, 72 hrs): 2.48 nM
- IC50 ([1]; read-out: Avg. IC50 across the PBMCs from healthy donors, 3 donors, 72 hrs (sentence prints 'At 60 hrs' for NanoRomidepsin PDLLA)): 0.8 nM
- IC50 ([1]; read-out: IC50 range across the PBMCs from healthy donors, 3 donors, 72 hrs (sentence prints 'At 60 hrs' for NanoRomidepsin PDLLA)): 0.04 to 2.5 nM
- acetylation of H3 and H4 (flow cytometry) [2]: concentration dependent increase in the acetylation of both H3 and H4
- MTD ([3]; intraperitoneal (IP)): 5 mg/kg
- MTD ([3]; intravenous (IV), highest dose tested 8 mg/kg): > 8 mg/kg
- clinical score (BALB/c mice; after first 7 days of treatment): equivalent clinical score
- dose at which mice reached humane endpoints (BALB/c mice; intraperitoneal (IP)): 8 mg/kg
- tumor response (BLI) compared to the control and ghost nanoparticle group [4]: cytostatic effect
- concentrations at which anti-proliferative and pro-apoptotic activity was seen [5]: 1 to 500 nM
